The results in this text go back to patent publication US8629143B2, “Potassium channel modulators” (AbbVie Inc., priority 2009, dated 2014).

pEC50: −log10 of the molar value.

The target in this experiment is T1, KCNQ 2/3 channels (HEK293 cells stably expressing human KCNQ2 and KCNQ3 subunits) (Homo sapiens, UniProt O43525+O43526).
T1 construct: expressed in transfected cells; host or cells: HEK293
Kind of experiment: KCNQ2/3 channel activation, thallium flux FLIPR assay with BTC-AM dye. The format is cell-based. The note with it: for Emax: HEK293, maximum response relative to the response produced by 10 μM retigabine (set at 100%), read-out: Max. %; for pEC50: HEK293 cells expressing human KCNQ2 and KCNQ3, thallium flux, FLIPR. In short, it runs like this: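 HEK293 cells stably expressing human KCNQ2/KCNQ3 were loaded with BTC-AM (3 μg/mL, 2 h, RT) and preincubated with compound for 4 min in pH 7.3 gluconate buffer containing 0.1 mM ouabain. Flux was triggered by 6 mM TlNO3/10 mM K2SO4 and read for 3 min; EC50 came from summed responses over basal, with maximum relative to 10 μM retigabine (100%).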

What is called pEC50 is the EC50 on a negative log10 scale, so that one unit is a factor of ten. For the molecule `O=C(C[C@@H]1C[C@@H]2C=C[C@H]1C2)Nn1nc(C2CCC2)c2ccccc2c1=O` [Example 67, 2-[(1S,2S,4S)-bicyclo[2.2.1]hept-5-en-2-yl]-N-(4-cyclobutyl-1-oxophthalazin-2(1H)-yl)acetamide], the Emax was 166% and the pEC50 was more than 7.00.

Consider `Cc1ccc(-c2nn(NC(=O)Cc3cc(F)cc(F)c3)c(=O)c3ccccc23)cc1` [Example 136, 2-(3,5-difluorophenyl)-N-[4-(4-methylphenyl)-1-oxophthalazin-2(1H)-yl]acetamide], for which the Emax turned out to be 130% and the pEC50 is more than 7.00.

As to `O=C(CC12CC3CC(CC(C3)C1)C2)Nn1nc(-c2ccccc2)c2cc(F)ccc2c1=O` [Example 37, 2-(1-adamantyl)-N-(6-fluoro-1-oxo-4-phenylphthalazin-2(1H)-yl)acetamide], the Emax turned out to be 179% and the negative-log EC50 (pEC50) was more than 7.00.

For `O=C(Cc1ccc(Cl)cc1)Nn1nc(C(F)(F)F)c2ccccc2c1=O` [Example 13, 2-(4-chlorophenyl)-N-[1-oxo-4-(trifluoromethyl)phthalazin-2(1H)-yl]acetamide], the Emax came to 47% and the pEC50 is 6.30 to 7.00.

In the case of `COc1ccc(-c2nn(NC(=O)CC34CC5CC(CC(C5)C3)C4)c(=O)c3ccc(Br)cc23)cc1` [Example 175, 2-(adamantan-1-yl)-N-[6-bromo-4-(4-methoxyphenyl)-1-oxophthalazin-2(1H)-yl]acetamide], the Emax was 13% and the pEC50 is less than 5.00.

As to `CC(C)(CC(=O)Nn1nc(C(F)(F)F)c2ccccc2c1=O)c1ccc(Cl)cc1` [Example 42, 3-(4-chlorophenyl)-3-methyl-N-[1-oxo-4-(trifluoromethyl)phthalazin-2(1H)-yl]butanamide], the Emax was determined as 103% and the pEC50 was 6.30 to 7.00.

Turning to `O=C(C[C@H]1C[C@@H]2CC[C@H]1C2)Nn1nc(Cc2ccccc2)c2ccccc2c1=O` (racemic) [Example 141, (±)-N-(4-benzyl-1-oxophthalazin-2(1H)-yl)-2-(exo-bicyclo[2.2.1]hept-2-yl)acetamide], the Emax came to 130% and the negative-log EC50 (pEC50) is more than 7.00.

With `O=C(CC12CC3CC(CC(C3)C1)C2)Nn1nc(-c2ccccc2)c2cccnc2c1=O` [Example 7, 2-(1-adamantyl)-N-(8-oxo-5-phenylpyrido[2,3-d]pyridazin-7(8H)-yl)acetamide], the Emax turned out to be 136% and the pEC50 was 5.00 to 6.00.

Regarding `Cc1ccc(-c2nn(NC(=O)CC34CC5CC(CC(C5)C3)C4)c(=O)c3ccccc23)cc1C` [Example 164, 2-(adamantan-1-yl)-N-[4-(3,4-dimethylphenyl)-1-oxophthalazin-2(1H)-yl]acetamide], the Emax was 155% and the pEC50 is more than 7.00.

Regarding `O=C(Cc1ccc(Cl)cc1)Nn1nc(C2CCC2)c2ccccc2c1=O` [Example 70, 2-(4-chlorophenyl)-N-(4-cyclobutyl-1-oxophthalazin-2(1H)-yl)acetamide], the Emax is 124% and the negative-log EC50 (pEC50) was 6.30 to 7.00.

For `O=C(Cc1cc(F)cc(F)c1)Nn1nc(-c2ccc(Cl)cc2)c2c(F)ccc(F)c2c1=O` [Example 181, N-[4-(4-chlorophenyl)-5,8-difluoro-1-oxophthalazin-2(1H)-yl]-2-(3,5-difluorophenyl)acetamide], the Emax was determined as 166% and the pEC50 was 6.30 to 7.00.

On to `O=C(Cc1ccc(Cl)cc1)Nn1nc(Cc2ccccc2)c2ccccc2c1=O` [Example 142, N-(4-benzyl-1-oxophthalazin-2(1H)-yl)-2-(4-chlorophenyl)acetamide], for which the Emax is 109% and the pEC50 is more than 7.00.

Regarding `O=C(CSC12CC3CC(CC(C3)C1)C2)Nn1nc(-c2ccccc2)c2ccccc2c1=O` [Example 193, 2-(adamantan-1-ylthio)-N-(1-oxo-4-phenylphthalazin-2(1H)-yl)acetamide], the Emax is 161% and the pEC50 is 6.30 to 7.00.
